One assay addresses T1, Kv1.3 potassium channel (Homo sapiens, UniProt P22001).
T1 construct: expressed in transfected cells
As to the kind of experiment: Kv1.3 potassium channel blocker activity, automated whole-cell patch clamp (Patchliner). The format is cell-based. The conditions noted are these: CHO-K1 cells stably expressing Kv1.3; whole-cell current, Hill fit. As for the experimental part:
Example 9. Evaluation of Kv1.3 Potassium Channel Blocker Activities
This assay is used to evaluate the disclosed compounds' activities as Kv1.3 potassium channel blockers.
CHO-K1 cells stably expressing Kv1.3 were grown in DMEM containing 10% heat-inactivated FBS, 1 mM Sodium Pyruvate, 2 mM L-Glutamine and G418 (500 μg/ml). Cells were grown in culture flasks at 37° C. in a […] incubator.
The cells were bathed in an extracellular solution containing 140 mM NaCl, 4 mM KCl, 2 mM CaCl2, 1 mM MgCl2, 5 mM Glucose, 10 mM HEPES; pH adjusted to 7.4 with NaOH; 295-305 mOsm. The internal solution contained 50 mM KCl, 10 mM NaCl, 60 mM KF, 20 mM EGTA, 10 mM HEPES; pH adjusted to 7.2 with KOH; 285 mOsm. All compounds were dissolved in DMSO at 30 mM. Compound stock solutions were freshly diluted with external solution to concentrations of 30 nM, 100 nM, 300 nM, 1 μM, 3 μM, 10 μM, 30 μM and 100 μM. The highest content of DMSO (0.3%) was present in 100 μM.
The currents were evoked by applying 100 ms depolarizing pulses from −90 mV (holding potential) to +40 mV were applied with 0.1 Hz frequency. Control (compound-free) and compound pulse trains for each compound concentration applied contained 20 pulses. 10-second breaks were used between pulse trains (see Table A below).
Whole-cell current recordings and compound application were enabled by means of an automated patch clamp platform Patchliner (Nanion Technologies GmbH). EPC 10 patch clamp amplifier (HEKA Elektronik Dr. Schulze GmbH) along with Patchmaster software (HEKA Elektronik Dr. Schulze GmbH) was used for data acquisition. Data were sampled at 10 kHz without filtering. Passive leak currents were subtracted online using a P/4 procedure (HEKA Elektronik Dr. Schulze GmbH). Increasing compound concentrations were applied consecutively to the same cell without washouts in between. Total compound incubation time before the next pulse train was not longer than 10 seconds. Peak current inhibition was observed during compound equilibration.
(§1) AUC and peak values were obtained with Patchmaster (HEKA Elektronik Dr. Schulze GmbH). To determine IC50, the last single pulse in the pulse train corresponding to a given compound concentration was used. Obtained AUC and peak values in the presence of compound were normalized to control values in the absence of compound. Using Origin (OridinLab), IC50 was derived from data fit to Hill equation: Icompound/Icontrol=(100−A)/(1+([compound]/IC50)nH)+A, where IC50 value is the concentration at which current inhibition is half-maximal, [compound] is the applied compound concentration, A is the fraction of current that is not blocked and nH is the Hill coefficient.

The next assay has as its target T2, hERG channel (Homo sapiens, UniProt Q12809).
T2 construct: expressed in transfected cells
As to the kind of experiment: hERG electrophysiology, automated whole-cell patch clamp (Patchliner). The format is cell-based. The conditions noted are these: CHO-K1 cells stably expressing hERG; whole-cell current, Hill fit. As for the experimental part: Example 10. Evaluation of hERG Activities
This assay is used to evaluate the disclosed compounds' inhibition activities against the hERG channel.
CHO-K1 cells stably expressing hERG were grown in Ham's F-12 Medium with Glutamine containing 10% heat-inactivated FBS, 1% Penicillin/Streptomycin, Hygromycin (100 μg/ml) and G418 (100 μg/ml). Cells were grown in culture flasks at 37° C. in a 5% CO2-humidified incubator.
The cells were bathed in an extracellular solution containing 140 mM NaCl, 4 mM KCl, 2 mM CaCl2), 1 mM MgCl2, 5 mM Glucose, 10 mM HEPES; pH adjusted to 7.4 with NaOH; 295-305 mOsm. The internal solution contained 50 mM KCl, 10 mM NaCl, 60 mM KF, 20 mM EGTA, 10 mM HEPES; pH adjusted to 7.2 with KOH; 285 mOsm. All compounds were dissolved in DMSO at 30 mM. Compound stock solutions were freshly diluted with external solution to concentrations of 30 nM, 100 nM, 300 nM, 1 μM, 3 μM, 10 μM, 30 μM and 100 μM. The highest content of DMSO (0.3%) was present in 100 μM.
The voltage protocol (see Table B) was designed to simulate voltage changes during a cardiac action potential with a 300 ms depolarization to +20 mV (analogous to the plateau phase of the cardiac action potential), a repolarization for 300 ms to −50 mV (inducing a tail current) and a final step to the holding potential of −80 mV. The pulse frequency was 0.3 Hz. Control (compound-free) and compound pulse trains for each compound concentration applied contained 70 pulses.
Whole-cell current recordings and compound application were enabled by means of an automated patch clamp platform Patchliner (Nanion). EPC 10 patch clamp amplifier (HEKA) along with Patchmaster software (HEKA Elektronik Dr. Schulze GmbH) was used for data acquisition. Data were sampled at 10 kHz without filtering. Increasing compound concentrations were applied consecutively to the same cell without washouts in between.
as §1, with “PEAK” for “peak”, “IC50” for “IC50,”, “IC50” for “IC50 value”
Background: The hERG channel carries a current that helps repolarise heart muscle cells.

T1 sequence (P22001 whole entry): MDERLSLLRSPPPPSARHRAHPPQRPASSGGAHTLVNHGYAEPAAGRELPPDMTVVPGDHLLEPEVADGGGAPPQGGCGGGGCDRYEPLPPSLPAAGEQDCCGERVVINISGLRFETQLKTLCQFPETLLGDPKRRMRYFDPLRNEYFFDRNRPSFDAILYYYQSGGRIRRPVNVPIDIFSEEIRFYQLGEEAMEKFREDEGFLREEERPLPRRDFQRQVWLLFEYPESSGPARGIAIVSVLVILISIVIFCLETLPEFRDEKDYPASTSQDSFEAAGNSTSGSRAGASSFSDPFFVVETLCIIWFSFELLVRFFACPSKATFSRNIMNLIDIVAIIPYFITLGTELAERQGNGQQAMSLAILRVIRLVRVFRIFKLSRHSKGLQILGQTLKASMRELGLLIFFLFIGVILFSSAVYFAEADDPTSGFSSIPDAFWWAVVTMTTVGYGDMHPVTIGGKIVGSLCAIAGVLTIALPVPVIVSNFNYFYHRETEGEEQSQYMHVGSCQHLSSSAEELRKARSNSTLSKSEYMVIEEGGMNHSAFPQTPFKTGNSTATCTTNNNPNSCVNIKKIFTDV
T2 sequence (Q12809 whole entry): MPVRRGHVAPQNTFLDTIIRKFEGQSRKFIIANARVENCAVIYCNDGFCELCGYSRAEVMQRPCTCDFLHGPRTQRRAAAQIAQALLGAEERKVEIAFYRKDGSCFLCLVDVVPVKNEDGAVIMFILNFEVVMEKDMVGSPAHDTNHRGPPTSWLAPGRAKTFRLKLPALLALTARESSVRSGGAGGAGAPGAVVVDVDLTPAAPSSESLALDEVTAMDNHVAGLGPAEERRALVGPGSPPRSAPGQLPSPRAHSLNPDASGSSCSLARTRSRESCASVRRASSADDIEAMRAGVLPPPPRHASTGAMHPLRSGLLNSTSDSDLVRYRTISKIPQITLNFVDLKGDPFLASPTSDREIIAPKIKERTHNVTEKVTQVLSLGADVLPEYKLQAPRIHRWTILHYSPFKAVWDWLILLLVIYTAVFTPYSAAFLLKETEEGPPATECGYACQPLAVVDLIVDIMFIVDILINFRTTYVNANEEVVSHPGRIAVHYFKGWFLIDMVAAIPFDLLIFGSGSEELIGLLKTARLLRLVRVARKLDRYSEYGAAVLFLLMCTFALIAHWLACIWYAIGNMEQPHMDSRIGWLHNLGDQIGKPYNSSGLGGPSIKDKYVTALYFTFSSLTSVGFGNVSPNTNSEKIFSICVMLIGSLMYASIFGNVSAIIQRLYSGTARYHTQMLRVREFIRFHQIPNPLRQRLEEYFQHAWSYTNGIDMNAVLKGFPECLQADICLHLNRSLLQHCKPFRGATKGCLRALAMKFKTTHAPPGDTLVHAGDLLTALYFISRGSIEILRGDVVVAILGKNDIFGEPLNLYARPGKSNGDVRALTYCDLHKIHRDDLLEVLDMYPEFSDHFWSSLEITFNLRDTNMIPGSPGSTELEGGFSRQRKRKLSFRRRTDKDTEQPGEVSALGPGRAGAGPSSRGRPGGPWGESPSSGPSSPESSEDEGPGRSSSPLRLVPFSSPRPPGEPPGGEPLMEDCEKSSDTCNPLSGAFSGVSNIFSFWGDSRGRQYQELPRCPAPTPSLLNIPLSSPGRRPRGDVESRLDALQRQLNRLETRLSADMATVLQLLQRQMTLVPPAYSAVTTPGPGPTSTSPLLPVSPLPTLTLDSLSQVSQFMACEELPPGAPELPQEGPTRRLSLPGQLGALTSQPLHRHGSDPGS

As a reminder, the IC50 is the midpoint of a concentration-inhibition curve. Higher therefore signals lower potency. `O=C1[C@@H]2C[C@H](c3c(O)ccc(Cl)c3Cl)CCN2C(=O)CN1C1CNC1` [Compound 1, (8R,9aS)-2-(azetidin-3-yl)-8-(2,3-dichloro-6-hydroxyphenyl)-octahydro-1H-pyrido[1,2-a]pyrazine-1,4-dione]: the IC50 is under 1 µM at Kv1.3 potassium channel and over 30 µM against hERG channel.

As for `O=C1[C@@H]2C[C@H](c3c(O)ccc(Cl)c3Cl)CCN2C(=O)CN1C1CC(O)C1` (single isomer, unassigned; isomer 2) [Compound 44, 8-(2,3-dichloro-6-hydroxyphenyl)-2-[3-hydroxycyclobutyl]-hexahydropyrido[1,2-a]pyrazine-1,4-dione isomer 2], the IC50 is under 1 µM on Kv1.3 potassium channel and over 30 µM against hERG channel.

Regarding `O=C1[C@@H]2C[C@@H](O)CN2C(=O)[C@@H]2C[C@H](c3c(O)ccc(Cl)c3Cl)CCN12` [Compound 43, (2R,5aS,7R,11aS)-7-(2,3-dichloro-6-hydroxyphenyl)-2-hydroxyhexahydro-1H-pyrido[1,2-a]pyrrolo[1,2-d]pyrazine-5,11(5aH,11aH)-dione], at Kv1.3 potassium channel, the IC50 is under 10 µM.

Molecule `O=C1[C@H]2[C@@H](O)CCN2C(=O)[C@H]2C[C@@H](c3c(O)ccc(Cl)c3Cl)CCN12` [Compound 25, (1S,5aR,7S,11aR)-7-(2,3-dichloro-6-hydroxyphenyl)-1-hydroxyhexahydro-1H-pyrido[1,2-a]pyrrolo[1,2-d]pyrazine-5,11(5aH,11aH)-dione] registered an IC50 against Kv1.3 potassium channel of under 10 µM.

For the molecule `O=C1[C@H]2C[C@@H](c3c(O)ccc(Cl)c3Cl)CCN2C(=O)CN1C1CC(O)C1` (single isomer, unassigned; isomer 3) [Compound 34, 8-(2,3-dichloro-6-hydroxyphenyl)-2-[3-hydroxycyclobutyl]-hexahydropyrido[1,2-a]pyrazine-1,4-dione isomer 3], at Kv1.3 potassium channel, the IC50 was under 10 µM.

Consider `O=C1N[C@H](CO)C(=O)N2CC[C@H](c3c(O)ccc(Cl)c3Cl)C[C@H]12` [Compound 57, (3R,8S,9aR)-8-(2,3-dichloro-6-hydroxyphenyl)-3-(hydroxymethyl)hexahydro-4H-pyrido[1,2-a]pyrazine-1,4(6H)-dione], for which the concentration for half-maximal inhibition (IC50) against Kv1.3 potassium channel was under 10 µM.

On to `O=C1[C@H]2[C@H](O)CCN2C(=O)[C@H]2C[C@@H](c3c(O)ccc(Cl)c3Cl)CCN12` (single isomer, unassigned; isomer 2) [Compound 17, 7-(2,3-dichloro-6-hydroxyphenyl)-1-hydroxyhexahydro-1H-pyrido[1,2-a]pyrrolo[1,2-d]pyrazine-5,11(5aH,11aH)-dione isomer 2], for which, at Kv1.3 potassium channel, the IC50 was under 1 µM.

At Kv1.3 potassium channel, `O=C1[C@H]2C[C@@H](c3cc(Cl)c(Cl)cc3O)CCN2C(=O)CN1C1CNC1` [Compound 10, (8S,9aR)-2-(azetidin-3-yl)-8-(4,5-dichloro-2-hydroxyphenyl)hexahydro-4H-pyrido[1,2-a]pyrazine-1,4(6H)-dione] yielded a half-maximal inhibitory concentration (IC50) of under 10 µM.

As to `O=C1NC(=O)N2CC[C@@H](c3c(O)ccc(Cl)c3Cl)C[C@@H]12` (single isomer, unassigned; diastereoisomer 2) [Compound 19, 7-(2,3-dichloro-6-hydroxyphenyl)tetrahydro-imidazo[1,5-a]pyridine-1,3(2H,5H)-dione diastereoisomer 2], at Kv1.3 potassium channel, the IC50 was under 1 µM.

On to `O=C1[C@@H]2C[C@H](c3c(O)ccc(Cl)c3Cl)CCN2C(=O)[C@@H]2[C@H](O)CCN12` (single isomer, unassigned; isomer 1) [Compound 29, 7-(2,3-dichloro-6-hydroxyphenyl)-1-hydroxyhexahydro-1H-pyrido[1,2-a]pyrrolo[1,2-d]pyrazine-5,11(5aH,11aH)-dione isomer 1], for which the IC50 on Kv1.3 potassium channel is under 10 µM.

In the case of `O=C1NNC(=O)N2CC[C@H](c3c(O)ccc(Cl)c3Cl)C[C@H]12` [Compound 15, (8S,9aR)-8-(2,3-dichloro-6-hydroxyphenyl)hexahydro-4H-pyrido[1,2-d][1,2,4]triazine-1,4(6H)-dione], the IC50 at Kv1.3 potassium channel was under 10 µM.

Molecule `NC[C@H]1NC(=O)[C@@H]2C[C@H](c3c(O)ccc(Cl)c3Cl)CCN2C1=O` (relative stereo) [Compound 38, (8R,9aS)-rel-3-((3R)-aminomethyl)-8-(2,3-dichloro-6-hydroxyphenyl)-hexahydro-2H-pyrido[1,2-a]pyrazine-1,4-dione; trifluoroacetic acid] had an IC50 at Kv1.3 potassium channel of under 1 µM.

On Kv1.3 potassium channel, `CC(C)[C@H](O)[C@H]1NC(=O)[C@H]2C[C@@H](c3c(O)ccc(Cl)c3Cl)CCN2C1=O` [Compound 61, (3R,8S,9aR)-8-(2,3-dichloro-6-hydroxyphenyl)-3-[(1S)-1-hydroxy-2-methylpropyl]-hexahydro-2H-pyrido[1,2-a]pyrazine-1,4-dione] gave an IC50 of under 10 µM.

`O=C1[C@H]2C[C@@H](c3c(O)ccc(Cl)c3Cl)CCN2C(=O)CN1C(CO)CO` [Compound 21, (8S,9aR)-8-(2,3-dichloro-6-hydroxyphenyl)-2-(1,3-dihydroxypropan-2-yl)hexahydro-4H-pyrido[1,2-a]pyrazine-1,4(6H)-dione] showed an IC50 against Kv1.3 potassium channel of under 10 µM.

`CC(C)[C@H]1NC(=O)[C@H]2C[C@@H](c3c(O)ccc(Cl)c3Cl)CCN2C1=O` [Compound 48, (8S,9aR)-8-(2,3-dichloro-6-hydroxyphenyl)-3-(3R)-isopropyl-hexahydro-2H-pyrido[1,2-a]pyrazine-1,4-dione]: the half-maximal inhibitory concentration (IC50) against Kv1.3 potassium channel is under 10 µM.

`NN1C(=O)[C@H]2C[C@@H](c3c(O)ccc(Cl)c3Cl)CCN2C1=O` [Compound 27, (7S,8aR)-2-amino-7-(2,3-dichloro-6-hydroxyphenyl)tetrahydro-imidazo[1,5-a]pyridine-1,3(2H,5H)-dione]: at Kv1.3 potassium channel, the IC50 was under 1 µM.

Regarding `CN1C(=O)[C@H]2C[C@@H](c3c(O)ccc(Cl)c3Cl)CCN2C(=O)[C@H]1CO` [Compound 13, (3R,8S,9aR)-8-(2,3-dichloro-6-hydroxyphenyl)-3-(hydroxymethyl)-2-methyl-hexahydropyrido[1,2-a]pyrazine-1,4-dione], the IC50 on Kv1.3 potassium channel was under 30 µM.

Take `O=C1N[C@H](CCO)C(=O)N2CC[C@H](c3c(O)ccc(Cl)c3Cl)C[C@H]12` [Compound 63, (3R,8S,9aR)-8-(2,3-dichloro-6-hydroxyphenyl)-3-(2-hydroxyethyl)-hexahydro-2H-pyrido[1,2-a]pyrazine-1,4-dione]: the IC50 at Kv1.3 potassium channel was under 30 µM.

For the origin of these results see patent US20230040182A1, “ARYL HETEROBICYCLIC COMPOUNDS AS Kv1.3 POTASSIUM SHAKER CHANNEL BLOCKERS” (priority 2019, published 2023).
